Experimental data reported in patent US20060057665A1, “Galectin-14 therapeutic molecule and uses thereof” (The University of Melbourne, priority 2001, published 2006).

How the values were obtained:
rabbit erythrocytes = test: Hemagglutination assay on trypsin-treated, glutaraldehyde fixed rabbit erythrocytes; type: cell-based; details: negative control protein, 3 μM rGST
Experimental: Trypsin-treated, glutaraldehyde fixed rabbit erythrocytes were prepared and tested in an agglutination assay according to the method of Nowak et al. (Nowak et al. (1976) supra). Agglutination assays were performed in 96-well V-shaped microtiter plates with serial 2-fold dilutions of samples in 25 μl of DES (0.15 M NaCl, 2 mM EDTA, 2 mM dithiothreitol), 50 μl of 0.5% (w/v) BSA in 0.15 M NaCl and 25 μl of a 4% suspension of rabbit erythrocytes. The plates were shaken vigorously for 30 s, and agglutination was read after the plates had stood at room temperature for 1 h. Agglutinated erythrocytes formed a “mat” on the bottom of the well. For assessment of the inhibitory effects of saccharides, lactose, galactose, and N-acetyl-glucosamine were serially diluted in 25 μl of 0.15 M NaCl prior to the addition of recombinant protein in DES, 25 μl of 1% (w/v) BSA in 0.15 M NaCl, and 4% erythrocytes in PBS. The minimum concentration of GST-galectin-14 that gave mat formation (0.28 μM) was used in the saccharide inhibition assay. For assessment of the effects of antibody on GST-galectin-14 hemagglutination, ascites and supernatants from monoclonal antibodies and polyclonal rabbit sera all raised to recombinant galectin-14 were serially diluted in 25 μl of 0.15 M NaCl prior to the addition of recombinant protein in DES, 25 μl of 1% (w/v) BSA in 0.15 M NaCl, and 4% erythrocytes in PBS. […]

GST-galectin-14 = test: Saccharide inhibition of GST-galectin-14 induced hemagglutination; type: cell-based, rabbit; details: 0.28 μM GST-galectin-14; sugars 0.78-100 mM
Experimental: FIG. 14 is an image of a hemagglutination assay using GST-galectin-14 fusion protein. Agglutination of rabbit erythrocytes was assayed in a 96-well microtiter plate. Assays were conducted in the presence (2, 3, 4, and 5) or absence (1 and 6) of 0.28 μM recombinant GST-galectin-14, the minimum concentration to induce agglutination. Increasing concentrations (0.78-100 mM) of lactose (2), galactose (3), or N-acetyl-glucosamine (4) were added to inhibit agglutination. In the presence of GST-galectin-14 without sugar (5) the rabbit erythrocytes form a “mat” at the bottom of the wells. The assay buffer DES alone (1) and 3 μM rGST (6) were included as negative controls. Trypsin-treated, glutaraldehyde fixed rabbit erythrocytes were prepared and tested in an agglutination assay according to the method of Nowak et al. (Nowak et al. (1976) supra). Agglutination assays were performed in 96-well V-shaped microtiter plates with serial 2-fold dilutions of samples in 25 μl of DES (0.15 M NaCl, 2 mM EDTA, 2 mM dithiothreitol), 50 μl of 0.5% (w/v) BSA in 0.15 M NaCl and 25 μl of a 4% suspension of rabbit erythrocytes. The plates were shaken vigorously for 30 s, and agglutination was read after the plates had stood at room temperature for 1 h. Agglutinated erythrocytes formed a “mat” on the bottom of the well. For assessment of the inhibitory effects of saccharides, lactose, galactose, and N-acetyl-glucosamine were serially diluted in 25 μl of 0.15 M NaCl prior to the addition of recombinant protein in DES, 25 μl of 1% (w/v) BSA in 0.15 M NaCl, and 4% erythrocytes in PBS. The minimum concentration of GST-galectin-14 that gave mat formation (0.28 μM) was used in the saccharide inhibition assay. For assessment of the effects of antibody on GST-galectin-14 hemagglutination, ascites and supernatants from monoclonal antibodies and polyclonal rabbit sera all raised to recombinant galectin-14 were serially diluted in 25 μl of 0.15 M NaCl prior to the addition of recombinant protein in DES, 25 μl of 1% (w/v) BSA in 0.15 M NaCl, and 4% erythrocytes in PBS. […]

[1] = tested on: GST-galectin-14 binding to laminin; test: Lactose inhibition of GST-galectin-14 binding to immobilised laminin; details: 0.3 M lactose added
Experimental: FIG. 17 is an image of the saturation binding of GST-galectin-14 fusion protein to immobilised laminin. Laminin binding of GST-galectin-14 fusion protein was assayed using a solid-phase binding assay in a 96-well microtitre plate. Serial dilutions of GST-galectin-14 (▪) and GST (▴) were added to microtitre wells containing laminin. 0.3 M Lactose was added to GST-galectin-14 to inhibit binding (◯). The level of bound protein was monitored by the binding of rabbit anti-GST HRP antibody developed with TMB substrate and detected by a change in absorbance at 450 nm. Laminin binding activity was measured according to the method of Mazurek et al. with some modification. Briefly, the wells of a 96-well microtitre plate were coated with laminin from Engelbreth-Holm-Swarm murine sarcoma (Sigma) at 1 μg/100 μl of carbonate coating buffer (15 mM Na2CO3, 35 mM NaHCO3, pH 9.6) per well overnight at 4° C. Non-specific binding sites were blocked with 200 μl of 0.5% Tween 20 in PBS for 1 h. Plates were washed 3 times in 0.05% Tween 20 PBS and incubated with 50 μl serial dilutions of GST-galectin-14 or GST alone, diluted in 0.5% Tween 20 PBS, for 1.5 h at 37° C. Control wells contained 0.3 M lactose. […] The reaction was terminated with 100 μl 2 M sulphuric acid and the colour change monitored using a dual wavelength mode plate reader (Bio-tek instruments) at 450 nm, ref 690 nm.

effect on binding of GST-galectin-14 to laminin [1]	Compound	induction of hemagglutination (rabbit erythrocytes)	lowest sugar concentration at which inhibition of agglutination becomes evident (GST-galectin-14) [mM]
–	GST: GST moiety alone, used as negative control protein [reference compound]	does not	–
–	CC(=O)N[C@H]1C(O)O[C@H](CO)[C@@H](O)[C@@H]1O (some centres unmarked) [N-acetyl-glucosamine]	–	50
–	O=C[C@H](O)[C@@H](O)[C@@H](O)[C@H](O)CO [galactose]	–	12.5
reduced to the level of the control	OC[C@H]1O[C@@H](O[C@H]2[C@H](O)[C@@H](O)C(O)O[C@@H]2CO)[C@H](O)[C@@H](O)[C@H]1O (some centres unmarked) [lactose]	–	0.78
